# Experiments:
# Test in all cases: Weeding effect in post-emergence stage
# Format in all cases: in vivo
# Details in all cases: Dose 15 g/ha; level of fresh weight growth control rate
# Alopecurus japonicus = test system: Alopecurus japonicus
# In short: (§1)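 Compound, dissolved in acetone and diluted in water with Tween 80 plus methyl oleate EC (1.5 liter/ha), is sprayed onto 2-3 leaf potted plants. Rates span 7.5–500 g/ha. After 3 weeks of greenhouse culture, weeding effect is counted as the mean of triplicates.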
# Eleusine indica = test system: Eleusine indica
# In short: as §1
# Setaria viridis = test system: Setaria viridis
# In short: as §1
# Abutilon theophrasti = test system: Abutilon theophrasti
# In short: as §1
# Digitaria sanguinalis = test system: Digitaria sanguinalis
# In short: as §1
# Echinochloa crusgalli = test system: Echinochloa crusgalli
# In short: as §1
Structure (SMILES),"Weeding effect in post-emergence stage, Alopecurus japonicus (Alopecurus japonicus)","Weeding effect in post-emergence stage, Eleusine indica (Eleusine indica)","Weeding effect in post-emergence stage, Setaria viridis (Setaria viridis)","Weeding effect in post-emergence stage, Abutilon theophrasti (Abutilon theophrasti)","Weeding effect in post-emergence stage, Digitaria sanguinalis (Digitaria sanguinalis)","Weeding effect in post-emergence stage, Echinochloa crusgalli (Echinochloa crusgalli)"
COC(=O)[C@@H](C)O/N=C/c1cc(-n2c(=O)n(C)c(=S)n(C)c2=O)c(F)cc1C(F)(F)F [85(R)],4 (Level 4: growth control rate is greater than or equal to 60% and less than 85%),5 (Level 5: growth control rate is above 85%),5 (Level 5: growth control rate is above 85%),5 (Level 5: growth control rate is above 85%),5 (Level 5: growth control rate is above 85%),5 (Level 5: growth control rate is above 85%)
CCOC(=O)[C@@H](C)O/N=C/c1cc(-n2c(=O)n(C)c(=S)n(C)c2=O)c(F)cc1C(F)(F)F [86(R)],3 (Level 3: growth control rate is greater than or equal to 40% and less than 60%),5 (Level 5: growth control rate is above 85%),4 (Level 4: growth control rate is greater than or equal to 60% and less than 85%),5 (Level 5: growth control rate is above 85%),3 (Level 3: growth control rate is greater than or equal to 40% and less than 60%),4 (Level 4: growth control rate is greater than or equal to 60% and less than 85%)
COC(=O)[C@@H](C)O/N=C/c1cc(-n2c(=O)n(C)c(=S)n(C)c2=O)c(F)cc1C#N [87(R)],5 (Level 5: growth control rate is above 85%),5 (Level 5: growth control rate is above 85%),5 (Level 5: growth control rate is above 85%),5 (Level 5: growth control rate is above 85%),5 (Level 5: growth control rate is above 85%),5 (Level 5: growth control rate is above 85%)
CCOC(=O)[C@@H](C)O/N=C/c1cc(-n2c(=O)n(C)c(=S)n(C)c2=O)c(F)cc1C#N [88(R)],5 (Level 5: growth control rate is above 85%),5 (Level 5: growth control rate is above 85%),5 (Level 5: growth control rate is above 85%),5 (Level 5: growth control rate is above 85%),5 (Level 5: growth control rate is above 85%),5 (Level 5: growth control rate is above 85%)
COC(=O)[C@@H](C)O/N=C/c1cc(-n2c(=O)n(C)c(=S)n(C)c2=S)c(F)cc1Cl [124(R)],5 (Level 5: growth control rate is above 85%),5 (Level 5: growth control rate is above 85%),5 (Level 5: growth control rate is above 85%),5 (Level 5: growth control rate is above 85%),5 (Level 5: growth control rate is above 85%),5 (Level 5: growth control rate is above 85%)
CCOC(=O)[C@@H](C)O/N=C/c1cc(-n2c(=O)n(C)c(=S)n(C)c2=S)c(F)cc1Br [161(R)],4 (Level 4: growth control rate is greater than or equal to 60% and less than 85%),5 (Level 5: growth control rate is above 85%),5 (Level 5: growth control rate is above 85%),5 (Level 5: growth control rate is above 85%),4 (Level 4: growth control rate is greater than or equal to 60% and less than 85%),5 (Level 5: growth control rate is above 85%)
COC(=O)[C@@H](C)O/N=C/c1cc(-n2c(=O)n(C)c(=O)n(C)c2=O)c(F)cc1Cl [164(R)],5 (Level 5: growth control rate is above 85%),5 (Level 5: growth control rate is above 85%),5 (Level 5: growth control rate is above 85%),5 (Level 5: growth control rate is above 85%),5 (Level 5: growth control rate is above 85%),5 (Level 5: growth control rate is above 85%)
CCSC(=O)[C@@H](C)O/N=C/c1cc(-n2c(=O)n(C)c(=S)n(C)c2=O)c(F)cc1Cl [168(R)],5 (Level 5: growth control rate is above 85%),5 (Level 5: growth control rate is above 85%),5 (Level 5: growth control rate is above 85%),5 (Level 5: growth control rate is above 85%),5 (Level 5: growth control rate is above 85%),5 (Level 5: growth control rate is above 85%)
COC(=O)CCNC(=O)[C@@H](C)O/N=C/c1cc(-n2c(=O)n(C)c(=S)n(C)c2=O)c(F)cc1Cl [183(R)],5 (Level 5: growth control rate is above 85%),5 (Level 5: growth control rate is above 85%),5 (Level 5: growth control rate is above 85%),5 (Level 5: growth control rate is above 85%),5 (Level 5: growth control rate is above 85%),5 (Level 5: growth control rate is above 85%)
C[C@@H](O/N=C/c1cc(-n2c(=O)cc(C(F)(F)F)n(C)c2=O)c(F)cc1Cl)C(=O)O [193(R)],5 (Level 5: growth control rate is above 85%),5 (Level 5: growth control rate is above 85%),5 (Level 5: growth control rate is above 85%),5 (Level 5: growth control rate is above 85%),5 (Level 5: growth control rate is above 85%),5 (Level 5: growth control rate is above 85%)
CCCCOC(=O)[C@@H](C)O/N=C/c1cc(-n2c(=O)cc(C(F)(F)F)n(C)c2=O)c(F)cc1Cl [200(R)],5 (Level 5: growth control rate is above 85%),5 (Level 5: growth control rate is above 85%),5 (Level 5: growth control rate is above 85%),5 (Level 5: growth control rate is above 85%),5 (Level 5: growth control rate is above 85%),5 (Level 5: growth control rate is above 85%)

# Reference: US20230111310A1, “CARBOXYLIC ACID DERIVATIVE-SUBSTITUTED IMINO ARYL COMPOUND, PREPARATION METHOD THEREFOR, HERBICIDAL COMPOSITION AND USE THEREOF” (Qingdao Kingagroot Chemical Compound Co., Ltd., priority 2020, published 2023)
